We go through one substance from patent US11220534B2, “Treatment of neurological diseases” (Lancaster University Business Enterprises Limited, priority 2016, dated 2022).

Where no end group is shown, it is not given here. [ ]: non-standard residue; d: D form. Aib = CC(C)(N)C(=O)O

What all share (format): in vivo
Experiment [1] concerns APP/PS1 mice. Nature of the experiment: Y-maze test for working memory in AD mice. Conditions: FIG. 6, N=8-14 per group. An excerpt:
Materials and methods in Example 2 are the same as Example 1 except when stated. Reagents used in Example 2 only include antibodies to p-PI3Kp85, PI3Kp85, p-Akt (ser473), Akt, p-GSK3β ([…]), and GSK3β from Abcam, Inc. Cambridge, UK. The antibody to p-tau (AT8) from Thermo Scientific USA. Mouse Anti-β-actin, Anti-Rabbit IgG, Anti-mouse IgG, CY3-Anti-mouse IgG, RIPA Lysate, BCA Protein Assay Kit, DAPI staining solution and Anti-fluorescence decay agent from Boster (Wuhan, China). Spatial working memory was assessed by recording spontaneous alternation behaviour in a Y-maze. The maze was made of three 30 cm long, 7 cm high, 15 cm wide arms and the arms converged in an equilateral triangular central area. Each mouse was placed at the central triangular area and allowed to move freely through the maze during an 8-min session. The total arm entries and arm order was recorded by Smart 3.0 software system. Alternation was defined as successive entries into the three arms, on overlapping triplet sets. The percent alternation was calculated as the ratio of actual to possible alternations (defined as the total number of arm entries minus 2) multiplied by 100.

In experiment [2] the test system is APP/PS1 mice. Nature of the experiment: Reversal Morris water maze test. An excerpt:
Materials and methods in Example 2 are the same as Example 1 except when stated. Reagents used in Example 2 only include antibodies to p-PI3Kp85, PI3Kp85, p-Akt (ser473), Akt, p-GSK3β (Y216), and GSK3β from Abcam, Inc. Cambridge, UK. The antibody to p-tau (AT8) from Thermo Scientific USA. Mouse Anti-β-actin, Anti-Rabbit IgG, Anti-mouse IgG, CY3-Anti-mouse IgG, RIPA Lysate, BCA Protein Assay Kit, DAPI staining solution and Anti-fluorescence decay agent from Boster (Wuhan, China).
Classical Morris water maze (MWM) test was used to investigate spatial reference memory of mouse. The water maze mainly included a stainless steel pool and a platform in the pool for escape. There were several landmarks fixed to the walls of the water maze. The pool was filled with tap water at 22±2° C. The first phase was acquisition trial phase which was consisted of five training days (days 1-5) and four trials each day. The pool (diameter, 120 cm; high, 50 cm) was divided into four quadrants and the escape platform (diameter, 12 cm) hidden 1 cm beneath the water surface was placed in the center of the first quadrant. […] The escape latencies were recorded by Ethovision 3.0 software system (Noldus Information Technology, the Netherlands). […] The percentage of swimming time in target quadrant (the first quadrant) and frequency of platform crossing were recorded. […] Swimming time to target was recorded.

Experiment [3] concerns APP/PS1 mice. Nature of the experiment: Immunostaining for phosphorylated tau protein in the hippocampus. Conditions: APP/PS1 mice vs APP/PS1-saline; FIG. 10; N=4 per group. An excerpt:
Materials and methods in Example 2 are the same as Example 1 except when stated. Reagents used in Example 2 only include antibodies to p-PI3Kp85, PI3Kp85, p-Akt (ser473), Akt, p-GSK3β ([…]), and GSK3β from Abcam, Inc. Cambridge, UK. The antibody to p-tau (AT8) from Thermo Scientific USA. Mouse Anti-β-actin, Anti-Rabbit IgG, Anti-mouse IgG, CY3-Anti-mouse IgG, RIPA Lysate, BCA Protein Assay Kit, DAPI staining solution and Anti-fluorescence decay agent from Boster (Wuhan, China). After in vivo hippocampal L-LTP recording, the mice were anesthetized with chloral hydrate (0.007 ml/g) by intraperitoneal injection and then the brain tissue was fixed with paraformaldehyde for 24 hours, after that the tissue was transferred to 30% sucrose solution for dehydration. The brain tissue was harvested, frozen in -80° C., and then sliced at a thickness of 30 μm, put the frozen section in PBS, blocked with normal goat serum (Solarbio, Beijing, China), followed by adding the primary antibody, second antibody and DAPI. Phosphorylated tau protein was observed by confocal laser scanning microscopy.

Regarding “YXEGTFTSDYSIYLDKQAAXEFVNWLLAGGPSSGAPPPSKRRQRRKKRGY-NH2 (Y[Aib]EGTFTSDYSIYLDKQAA[Aib]EFVNWLLAGGPSSGAPPPSKRRQRRKKRGY-NH2) [DA5, No. 12; X=aminoisobutyric acid]”, the “spatial working memory (percent alternation, Y-maze)” value with APP/PS1 mice [1] was “improved spatial working memory”. Also, the “probe test, recall of a change in escape route (reverse Morris water maze)” value with APP/PS1 mice [2] (APP/PS1 mice vs APP/PS1-saline, FIG. 8c, 8d) is reported as “recalled a change in escape route to a greater extent than APP/PS1-saline mice”. In the experiment on APP/PS1 mice [2] (APP/PS1 mice, FIG. 8, N=8-14 per group), the “cognitive flexibility and ability to relearn (reverse Morris water maze)” value was “protects APP/PS1 mice from decreased cognitive flexibility and restores their ability to relearn”. Besides, the “neurofibrillary tangles (immunofluorescence staining of p-tau protein)” value with APP/PS1 mice [3] is “reduces neurofibrillary tangles”.
